Series [1] concerns Human immunodeficiency virus 1. Put plainly: microbe, parasite or virus in culture. The note with it: Human immunodeficiency virus 1, Ba-L.
Description: Antiviral activity against R5 tropic HIV1 Ba-L infected PBMC assessed as inhibition of viral p24 antigen expression
In series [2] the target is C-C chemokine receptor type 5 (Homo sapiens, UniProt P51681). Put plainly: Antagonist activity at human CCR5 expressed in CHO cells assessed as inhibition of MIP-1alpha-induced calcium mobilization. Format: functional, cell-based.
Series [3] concerns Liver microsomes. Put plainly: Metabolic stability in rat liver microsomes assessed as compound remaining after 15 mins. Type of series: ADME, Microsome. The note with it: 0.25 h. In general terms: Microsomes from liver hold many membrane-bound enzymes, among them those of drug oxidation.
For series [4], the system named is Liver microsomes. Put plainly: Metabolic stability in human liver microsomes assessed as compound remaining after 15 mins. Type of series: ADME, Microsome. The note with it: 0.25 h.
For series [5], the system named is Rattus norvegicus. Put plainly: Dose normalized Cmax in rat at 10 mg/kg, po. Set-up: dose 10 mg/kg, route oral. Type of series: ADME, organism-based. The note with it: in vivo.
The nature of series [6]: Clearance in rat at 3 mg/kg, iv. Format: ADME, organism-based. Set-up: dose 3 mg/kg, route intravenous. The note with it: in vivo.
The nature of series [7]: Half life in rat at 10 mg/kg, po. More on the design: dose 10 mg/kg, route oral. Type of series: ADME, organism-based. The note with it: in vivo.
The nature of series [8]: Half life in rat at 3 mg/kg, iv. Format: ADME, organism-based. Set-up: dose 3 mg/kg, route intravenous. The note with it: in vivo.
The nature of series [9]: AUC in rat at 3 mg/kg, iv. More on the design: dose 3 mg/kg, route intravenous. The note with it: plasma. Format: ADME, organism-based.
Series [10] can be described thus: Bioavailability in rat at 10 mg/kg, po. The note with it: in vivo. Format: ADME, organism-based.
For series [11], the system named is Rattus norvegicus. Put plainly: Dose normalized AUC in rat at 10 mg/kg, po. The note with it: in vivo. Format: ADME, organism-based. More on the design: dose 10 mg/kg, route oral.
Series [12] is described as follows: Aqueous solubility of the compound at pH 6.8. Format: physicochemical. The note with it: buffer.

Chain of C-C chemokine receptor type 5 (P51681 whole entry): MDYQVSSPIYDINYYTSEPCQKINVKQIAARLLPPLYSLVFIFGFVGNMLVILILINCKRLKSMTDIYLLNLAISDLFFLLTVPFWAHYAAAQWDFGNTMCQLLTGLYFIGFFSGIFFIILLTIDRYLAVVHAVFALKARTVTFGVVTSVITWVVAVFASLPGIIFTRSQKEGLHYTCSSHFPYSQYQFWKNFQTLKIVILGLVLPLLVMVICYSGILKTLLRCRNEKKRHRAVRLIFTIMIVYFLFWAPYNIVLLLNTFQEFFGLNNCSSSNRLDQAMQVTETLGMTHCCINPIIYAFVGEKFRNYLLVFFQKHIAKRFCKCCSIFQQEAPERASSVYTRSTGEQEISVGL

`CCCCN1C(=O)[C@H](CC2CCCCC2)NC(=O)C12CCN(Cc1ccc(Oc3ccc(C(=O)O)cc3)cc1)CC2`: the 90% effect level in [1] (IC90) was put at 171 nM.
`CCCCN1C(=O)[C@@H]([C@H](O)C2CCCCC2)NC(=O)C12CCN(Cc1ccc(Oc3ccc(OC)cc3)cc1)CC2`: the IC50 in series [2] came out at 91 nM.
For `CCCCN1C(=O)[C@@H]([C@H](O)C2CCCCC2)NC(=O)C12CCN(Cc1ccc(Oc3ccc(O)cc3)cc1)CC2.Cl`, the Stability in series [3] is reported as 23%; in series [4], 3.5%. Further, the IC50 in [2] was 68 nM.
On to `CCCCN1C(=O)[C@@H]([C@H](O)C2CCCCC2)NC(=O)C12CCN(Cc1ccc(Oc3ccc(C(N)=O)cc3)cc1)CC2.Cl`, for which the figures for the Stability in series [3] and in [4] were 19% and 1.5%, respectively. For the same compound, the IC50 in [2] turned out to be 39 nM.
The compound `CCCCN1C(=O)[C@@H]([C@H](O)C2CCCCC2)NC(=O)C12CCN(Cc1ccc(Oc3ccc(C(=O)NC)cc3)cc1)CC2.Cl` registered a Cmax/dose in series [5] of 333 ng/mL. Also, the clearance in series [6] amounted to 12.8 mL/min/kg. Besides, the half-life in [7] is 1.22 h; in series [8] it was 0.46 h. In [9], this compound displayed an AUC of 3780 ng·h/mL. This compound also had a bioavailability in series [10] of 10%. Besides, in series [2], the IC50 was 38 nM. This compound also came in with an AUC/dose in series [11] of 1296 ng·h/mL.
For `CCCCN1C(=O)[C@@H]([C@H](O)C2CCCCC2)NC(=O)C12CCN(Cc1ccc(Oc3ccc(S(N)(=O)=O)cc3)cc1)CC2`, the IC50 in series [2] turned out to be 48 nM.
For the compound `CCCCN1C(=O)[C@@H]([C@H](O)C2CCCCC2)NC(=O)C12CCN(Cc1ccc(Oc3ccc(S(C)(=O)=O)cc3)cc1)CC2`, in series [2], the half-inhibitory concentration (IC50) was 34 nM.
Regarding `CCCCN1C(=O)[C@@H]([C@H](O)C2CCCCC2)NC(=O)C12CCN(Cc1ccc(Oc3ccc(NS(C)(=O)=O)cc3)cc1)CC2.Cl`, the Cmax/dose in [5] was determined as 50 ng/mL. For the same compound, the clearance in series [6] stood at 25 mL/min/kg. In addition, the half-life in [7] was found to be 3.42 h; in series [8] it was 2.28 h. Besides, in series [9], the AUC worked out at 1540 ng·h/mL. Besides, the Stability came to 91% in series [3] and 1.8% in [4]. This compound also had a bioavailability in [10] of 5%. The AUC/dose in series [11] turned out to be 242 ng·h/mL.
Regarding `CCCCN1C(=O)[C@@H]([C@H](O)C2CC2)NC(=O)C12CCN(Cc1ccc(Oc3ccc(C(=O)O)cc3)cc1)CC2.Cl`, the figures for the Stability in series [3] and in series [4] were 100% and 89%, respectively. For the same compound, in series [2], the IC50 is 81 nM.
For `CCCCN1C(=O)[C@@H]([C@H](O)C2CCC2)NC(=O)C12CCN(Cc1ccc(Oc3ccc(C(=O)O)cc3)cc1)CC2.Cl`, the Stability was determined as 100% in [3] and 95% in series [4]. For the same compound, the concentration for half-maximal inhibition (IC50) in [2] stood at 25 nM.
In the case of `CCCCN1C(=O)[C@@H]([C@H](O)C2CCCC2)NC(=O)C12CCN(Cc1ccc(Oc3ccc(C(=O)O)cc3)cc1)CC2.Cl`, the Stability was 100% in [3] and 93% in series [4]. Further, in series [2], the IC50 turned out to be 33 nM.
For `CCCCN1C(=O)[C@@H]([C@H](O)C2CCCCCC2)NC(=O)C12CCN(Cc1ccc(Oc3ccc(C(=O)O)cc3)cc1)CC2.Cl`, in that order: 59%, 34% and 32 nM.
As for `CCCCN1C(=O)[C@@H]([C@H](O)C2CCOCC2)NC(=O)C12CCN(Cc1ccc(Oc3ccc(C(=O)O)cc3)cc1)CC2`, in series [2], the IC50 came to 120 nM.
For the compound `CCCCN1C(=O)[C@@H]([C@H](O)C2CCC(O)CC2)NC(=O)C12CCN(Cc1ccc(Oc3ccc(C(=O)O)cc3)cc1)CC2.Cl` (stereo partly specified), the Stability in [3] and in series [4] was 100% throughout. Further, the IC50 in [2] was found to be 140 nM.
`CCCCN1C(=O)[C@@H]([C@@H](O)C2CCC(O)CC2)NC(=O)C12CCN(Cc1ccc(Oc3ccc(C(=O)O)cc3)cc1)CC2.Cl` (stereo partly specified): in series [3], the Stability turned out to be 92%. In series [2], the IC50 was determined as 23 nM.
On to `CN1C(=O)[C@@H]([C@H](O)C2CCCCC2)NC(=O)C12CCN(Cc1ccc(Oc3ccc(C(=O)O)cc3)cc1)CC2`, for which, in series [2], the IC50 turned out to be 50 nM.
In the case of `CCN1C(=O)[C@@H]([C@H](O)C2CCCCC2)NC(=O)C12CCN(Cc1ccc(Oc3ccc(C(=O)O)cc3)cc1)CC2`, the IC50 in series [2] was 23 nM.
Same read-out and setting: next, `CCN1C(=O)[C@@H]([C@H](O)C2CCCCC2)NC(=O)C12CCN(Cc1ccc(Oc3ccc(C(=O)NC)cc3)cc1)CC2`: 20 nM.
Still for that read-out and setting: the result for `CCCCCN1C(=O)[C@@H]([C@H](O)C2CCCCC2)NC(=O)C12CCN(Cc1ccc(Oc3ccc(C(=O)NC)cc3)cc1)CC2` reads 68 nM.
Consider `CCCCCCN1C(=O)[C@@H]([C@H](O)C2CCCCC2)NC(=O)C12CCN(Cc1ccc(Oc3ccc(C(=O)NC)cc3)cc1)CC2`, for which the IC50 in [2] amounted to 110 nM.
Still for that read-out and setting: the result for `CCCCCCCN1C(=O)[C@@H]([C@H](O)C2CCCCC2)NC(=O)C12CCN(Cc1ccc(Oc3ccc(C(=O)NC)cc3)cc1)CC2` reads 190 nM; that for `CNC(=O)c1ccc(Oc2ccc(CN3CCC4(CC3)C(=O)N[C@H]([C@H](O)C3CCCCC3)C(=O)N4CCC(C)O)cc2)cc1` (stereo partly specified), 180 nM.
Still for that read-out and setting: the result for `CNC(=O)c1ccc(Oc2ccc(CN3CCC4(CC3)C(=O)N[C@H]([C@H](O)C3CCCCC3)C(=O)N4CCOC)cc2)cc1` reads 33 nM.
Same read-out and setting: the result for `CNC(=O)c1ccc(Oc2ccc(CN3CCC4(CC3)C(=O)N[C@H]([C@H](O)C3CCCCC3)C(=O)N4CC(F)(F)F)cc2)cc1` reads 46 nM; that for `CNC(=O)c1ccc(Oc2ccc(CN3CCC4(CC3)C(=O)N[C@H]([C@H](O)C3CCCCC3)C(=O)N4CC(F)(F)C(F)(F)F)cc2)cc1`, 270 nM.
Take `CCCCN1C(=O)C(CC2CCCCC2)NC(=O)C12CCN(Cc1ccc(Oc3ccc(C(=O)NC)cc3)cc1)CC2.Cl` (stereo unspecified): the Cmax/dose in [5] is 5.6 ng/mL. This compound also registered a clearance in [6] of 113 mL/min/kg. Further, the half-life came out at 1.72 h in series [7] and 0.332 h in [8]. For the same compound, in series [9], the AUC was 400 ng·h/mL. The compound also registered a bioavailability in series [10] of 1.9%. This compound returned an AUC/dose in series [11] of 24.8 ng·h/mL.
Take `CNC(=O)c1ccc(Oc2ccc(CN3CCC4(CC3)C(=O)N[C@H]([C@H](O)C3CCCCC3)C(=O)N4CCN(C)C)cc2)cc1`: the IC50 in series [2] worked out at 640 nM.
On the same count and under the same terms, the result for `CNC(=O)c1ccc(Oc2ccc(CN3CCC4(CC3)C(=O)N[C@H]([C@H](O)C3CCCCC3)C(=O)N4CCN)cc2)cc1` reads 750 nM.
In turn, `Cc1ccc(-c2ccc3c(c2)C=C(C(=O)Nc2ccc(C[N+](C)(C)C4CCOCC4)cc2)CCC3)cc1` had an IC90 in series [1] of 256 nM.
As for `CCCCN1C(=O)[C@@H]([C@H](O)C2CCCCC2)NC(=O)C12CCN(Cc1ccc(Oc3ccccc3)cc1)CC2.Cl`, the values for the Stability in series [3] and in series [4] were 18% and 6%, respectively.
Compound `CCCCN1C(=O)[C@@H]([C@H](O)C(C)C)NC(=O)C12CCN(Cc1ccc(Oc3ccccc3)cc1)CC2.Cl` displayed a solubility in series [12] of 2.7 µg/mL.
`Cc1c(O)cccc1C(=O)N[C@@H](CSc1ccccc1)[C@H](O)CN1C[C@H]2CCCC[C@H]2C[C@H]1C(=O)NC(C)(C)C`: the 90% effect concentration (IC90) in series [1] is 105 nM. This lies in the sub-micromolar range.
The same measure, in the same setting: the result for `COC[C@@H](c1ccc(C(F)(F)F)cc1)N1CCN(C2(C)CCN(C(=O)c3c(C)ncnc3C)CC2)C[C@@H]1C` [VICRIVIROC] reads 79 nM; that for `Cc1cn([C@H]2C[C@H](N=[N+]=[N-])[C@@H](CO)O2)c(=O)[nH]c1=O` [ZIDOVUDINE], 48 nM.

Usually IC90 stands for the point of the concentration-response curve where the effect stands at 90%. High values mean weaker potency, low ones greater potency. The term IC50 denotes the concentration that gives 50% inhibition. As usually defined, the clearance is the volume of plasma or blood freed of the substance per unit of time. A lower clearance goes with a low capacity for elimination. For orientation: half-life means how long it takes for the measured level to halve. Read a high half-life as slow loss. By AUC is commonly meant concentration integrated over time. A lower AUC goes with less exposure. A word on the bioavailability: it is dose-corrected exposure relative to a reference, in per cent. A lower bioavailability goes with poor availability. In general, solubility refers to the dissolved amount per volume that the medium holds. Read a low solubility as a poorly soluble substance.

The values above are taken from ChEMBL document CHEMBL1811891 (Bioorg Med Chem, 2011).
